{"source": "patent US12544348B2", "about": "“Methods for treating APOE4/4-associated disorders” (The Regents of the University of California, priority 2018, dated 2026)", "test_system": "hippocampal slices from apoE4-KI mice", "assay": "Brain slice electrophysiological recordings (LTP, input-output) after in vivo treatment", "details": "0.2 mg/kg for 8 weeks", "source_text": "Brain slice electrophysiological recordings and data analyses. For long-term potentiation (LTP) recording study, apoE4-KI mice were randomly allocated to vehicle (n=6, age 15.2±0.56 months) and bumetanide (n=3, age 15.1±0.06) treatment groups. ApoE3-KI mice were similarly allocated into vehicle (n=6, age 15.5±0.11) and bumetanide (n-3, age 15.57±0.19) treatment groups. For input/output recording study, apoE4-KI mice were randomly allocated to vehicle (n=3, age 15.1±0.06 months) and bumetanide (n=3, age 15.1±0.06) treatment groups. ApoE3-KI mice were similarly allocated into vehicle (n=7, age 15.3±0.06) and bumetanide (n=3, age 15.57±0.29) treatment groups. […]\nField post-synaptic potentials (fPSPs) were elicited by orthodromic stimulation of Schaffer collaterals by concentric bipolar stimulating electrode (FHC, Inc., USA) connected to a constant voltage isolated stimulator (DS2A-MKII, Digitimer North America) and placed in CA2 stratum radiatum. fPSPs were recorded with a glass borosilicate microelectrode filled with ACSF and placed in CA1 stratum radiatum. Signals were sampled and digitized by MultiClamp 700B amplifier and Digidata 1550B1 acquisition system with pClamp10 software (Molecular Devices, USA), and analyzed using IgorPro6 software (Wavemetrics Inc., USA) running custom macros. fPSP slopes were analyzed as the linear fit slope values between 10% and 90% of fPSP peak. […]", "data": [{"smiles": "CCCCNc1cc(C(=O)O)cc(S(N)(=O)=O)c1Oc1ccccc1", "note": "[bumetanide, 3-(butylamino)-4-phenoxy-5-sulfamoylbenzoic acid]", "values": [{"measurement": "long-term potentiation (LTP) in CA1 region of hippocampal slices", "setting": "aged (16-month-old) apoE4-KI mice, theta burst stimulation", "value": "completely rescued LTP deficit"}, {"measurement": "neuronal hyperexcitability in CA1 region (input-output curve analysis)", "setting": "aged apoE4-KI mice", "value": "normalized"}]}]}
